Experimental findings from patent US7879887B2, “α-amino acid derivatives and medicaments containing the same as an active ingredient” (Nissan Chemical Industries, Ltd., priority 2006, dated 2011) are described below.

One experiment concerns the target T1, Aurora A (Homo sapiens, UniProt O14965).
T1 construct: purchased Upstate Inc. 14-511
T1 sequence (O14965 1-403): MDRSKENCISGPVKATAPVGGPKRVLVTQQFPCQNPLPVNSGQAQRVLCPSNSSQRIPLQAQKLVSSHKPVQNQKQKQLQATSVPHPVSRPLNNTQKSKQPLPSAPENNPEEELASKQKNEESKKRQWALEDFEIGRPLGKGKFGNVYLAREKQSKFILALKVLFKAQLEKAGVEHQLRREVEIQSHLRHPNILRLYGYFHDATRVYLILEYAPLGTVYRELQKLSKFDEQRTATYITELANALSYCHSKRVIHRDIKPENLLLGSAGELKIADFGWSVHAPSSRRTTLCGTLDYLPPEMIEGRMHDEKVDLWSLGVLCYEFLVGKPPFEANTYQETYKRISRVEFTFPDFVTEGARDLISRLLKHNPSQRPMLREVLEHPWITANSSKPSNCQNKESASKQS
The experiment is described as follows: In vitro kinase assay, Aurora A. The format is biochemical. As to conditions: recombinant protein (Upstate). The method, boiled down: (§1)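 Recombinant human enzymes assayed per supplier protocol. IC50 derived with compound-free wells set as 0% inhibition and compound- and enzyme-free wells as 100% inhibition.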

The target in a further experiment is T2, CDK1/Cyclin B complex (Homo sapiens, UniProt P06493).
T2 construct: purchased Upstate Inc. 14-450
The experiment is described as follows: In vitro kinase assay, CDK1/Cyclin B complex. In kind it is biochemical. To be noted: recombinant protein (Upstate). Put shortly:
as §1

A further experiment addresses CDK2/Cyclin E complex (Homo sapiens, UniProt P24941). Kind of experiment: In vitro kinase assay, CDK2/Cyclin E complex. In kind it is biochemical. To be noted: recombinant protein (Upstate); read-out: CDK2/cyclinE IC50. Here is the method:
Inhibitory activity against Aurora A, CDK1/Cyclin B complex, CDK2/Cyclin E complex and CDK3/Cyclin E complex were measured by in vitro kinase assay using recombinant proteins.

Experiment [1] concerns colon carcinoma cell line SW620. Kind of experiment: Cell proliferation inhibitory activity, SW620. In kind it is cell-based, human. To be noted: Homo sapiens, SW-620, 96 h, cells counted 4 days later with Cell Counting Kit-8. The method, boiled down: (§2)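 Each line, maintained as the supplier recommends, is incubated with test compound dilutions for 4 days (37° C, 5% CO2). Counting uses CCK-8; 0% inhibition corresponds to untreated cells, 100% to medium without cells or compound, and IC50 is calculated from these.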
Background: Tetrazolium dyes change colour on reduction, which living cells bring about.

The test system of experiment [2] is breast cancer cell line MDA-MB-231. The experiment is described as follows: Cell proliferation inhibitory activity, MDA-MB-231. In kind it is cell-based. As to conditions: Homo sapiens, 96 h, cells counted 4 days later with Cell Counting Kit-8. Put shortly:
as §2

The subject of experiment [3] is ovarian cancer cell line IGROV1. The experiment is described as follows: Cell proliferation inhibitory activity, IGROV1. The format is cell-based. To be noted: Homo sapiens, IGROV-1, 96 h, cells counted 4 days later with Cell Counting Kit-8. The method, boiled down:
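Read-out: Cell Counting Kit-8 cell counts taken 4 days after cells in medium were added to graded test-substance concentrations. Incubation was at 37° C under 5% CO2. IC50 values were based on vehicle wells set to 0% inhibition and wells lacking compound and cells set to 100%.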

Another experiment relates to leukemia cell line KG-1a. The experiment is described as follows: Cell proliferation inhibitory activity, KG-1a. In kind it is cell-based. As to conditions: Homo sapiens, 96 h, cells counted 4 days later with Cell Counting Kit-8. The method, boiled down:
as §2

The test system of experiment [4] is pancreatic cancer cell line MIAPaCa-2. Kind of experiment: Cell proliferation inhibitory activity, MIAPaCa-2. In kind it is cell-based. As to conditions: Homo sapiens, MIA PaCa-2, 96 h; cells counted 4 days later, Cell Counting Kit-8. Here is the method:
Evaluations were carried out using colon carcinoma cell line SW620 (Cat. No. CCL-227), lung carcinoma cell line NCI-H460 (Cat. No. HTB-177), prostate cancer cell line DU 145 (Cat. No. HTB-81), breast cancer cell line MDA-MB-231 (Cat. No. HTB26) and leukemia cell line KG-1a (Cat. No. CCL-246.1) purchased from ATCC, pancreatic cancer cell line MIAPaCa-2 (Cat. No. CRL-1420) purchased from Dainippon Pharmaceutical, and ovarian cancer cell line IGROV1 received from the Netherland Cancer Institute. The cells were cultured under the conditions recommended by the supplier for each cell line, or with respect to IGROV1, according to the method described in Cancer Res. 59: 4559-4563, 1999. Cells suspended in media were added to solutions containing the test substances at various concentrations followed by culturing in a 5% CO2 incubator at 37° C. The numbers of cells were counted 4 days later with the Cell Counting Kit-8. IC50 values were calculated by assigning measured values in the case of not containing a test substance to an inhibition of 0%, and assigning measured values in the case of not containing a test substance or cells to an inhibition of 100%.

The subject of experiment [5] is prostate cancer cell line DU 145. Kind of experiment: Cell proliferation inhibitory activity, DU 145. In kind it is cell-based, human. To be noted: Homo sapiens, 96 h, cells counted 4 days later with Cell Counting Kit-8. The method, boiled down:
as §2

Experiment [6] concerns lung carcinoma cell line NCI-H460. The experiment is described as follows: Cell proliferation inhibitory activity, NCI-H460. In kind it is cell-based. To be noted: Homo sapiens, 96 h, cells counted 4 days later with Cell Counting Kit-8. Put shortly:
as §2

T2 sequence (P06493 whole entry): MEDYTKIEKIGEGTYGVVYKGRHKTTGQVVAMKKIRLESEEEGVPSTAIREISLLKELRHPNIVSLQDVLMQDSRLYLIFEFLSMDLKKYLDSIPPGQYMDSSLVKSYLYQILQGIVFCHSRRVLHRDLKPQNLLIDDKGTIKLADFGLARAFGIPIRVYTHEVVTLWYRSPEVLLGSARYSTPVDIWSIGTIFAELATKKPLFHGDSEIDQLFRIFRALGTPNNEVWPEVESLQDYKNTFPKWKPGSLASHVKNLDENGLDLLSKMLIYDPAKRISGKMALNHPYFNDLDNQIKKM
T2 sequence (P14635 whole entry partner): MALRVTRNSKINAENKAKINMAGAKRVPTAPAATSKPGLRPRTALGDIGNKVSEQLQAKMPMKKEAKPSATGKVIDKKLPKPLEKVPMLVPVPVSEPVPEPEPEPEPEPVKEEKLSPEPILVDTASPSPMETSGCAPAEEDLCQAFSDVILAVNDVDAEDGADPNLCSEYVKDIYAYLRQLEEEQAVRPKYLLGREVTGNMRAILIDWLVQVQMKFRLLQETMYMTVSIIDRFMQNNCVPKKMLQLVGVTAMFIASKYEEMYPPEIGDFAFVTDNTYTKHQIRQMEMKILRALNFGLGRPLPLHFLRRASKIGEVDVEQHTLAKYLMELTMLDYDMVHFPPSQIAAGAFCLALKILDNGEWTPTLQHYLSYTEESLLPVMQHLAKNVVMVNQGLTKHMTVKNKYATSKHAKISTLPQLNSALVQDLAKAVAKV

With `O=C(CNc1ccc(Cl)c(O)c1)Nc1nc2ccc3[nH]ncc3c2s1` [compound 6], the IC50 stood at 257 nM on Aurora A; 255 nM on CDK1/Cyclin B complex; 26 nM on CDK2/Cyclin E complex; 1500 nM in experiment [1]; 2600 nM in experiment [2]; 4300 nM in experiment [3]. Besides, the IC50 with leukemia cell line KG-1a is < 100 nM.

With `CC(=O)Nc1cc(NCC(=O)Nc2nc3ccc4[nH]ncc4c3s2)ccc1Cl` [compound 16], the IC50 stood at 278 nM on Aurora A; 37 nM at CDK2/Cyclin E complex; 1200 nM in experiment [1]; 4400 nM in [4]; 3200 nM in experiment [5]; 3200 nM in experiment [6]. Further, the IC50 in experiment [2] was 4400 nM; in the experiment on leukemia cell line KG-1a it was < 100 nM.

`CC(C)(Nc1ccc(Cl)cc1)C(=O)Nc1nc2ccc3[nH]ncc3c2s1` [compound 35]: the IC50 at Aurora A is 428 nM; at CDK2/Cyclin E complex, 45 nM; in experiment [1], 700 nM; in experiment [5] it was 2500 nM; in the experiment with leukemia cell line KG-1a, < 100 nM.

For the compound `CCNC(=O)c1cc(NC(C)(C)C(=O)Nc2nc3c(C(F)(F)F)cc4[nH]ncc4c3s2)ccc1F` [compound 58], the IC50 on CDK1/Cyclin B complex was 186 nM; on CDK2/Cyclin E complex it was 107 nM; in experiment [1], 500 nM; in [4], 4000 nM; in experiment [5], 900 nM; in experiment [6] it was 1300 nM. Further, the IC50 in experiment [2] is 4700 nM; with leukemia cell line KG-1a, 300 nM.

In the case of `CC(C)(Nc1ccc(Cl)c(O)c1)C(=O)Nc1nc2c(C(F)(F)F)cc3[nH]ncc3c2s1` [compound 95], the IC50 is 340 nM at Aurora A; 105 nM at CDK1/Cyclin B complex; 23 nM at CDK2/Cyclin E complex; 400 nM in experiment [1]; 4600 nM in experiment [4]; 1100 nM in [5]. Further, the figures for the IC50 (in experiment [6]; in the experiment on leukemia cell line KG-1a) were 1200 nM and 100 nM, respectively.

For the compound `O=C(Nc1nc2ccc3[nH]ncc3c2s1)C1(Nc2ccc(Cl)cc2)CC1` [compound 117], the IC50 was 317 nM on Aurora A; 358 nM at CDK1/Cyclin B complex; 19 nM at CDK2/Cyclin E complex; 500 nM in experiment [1]; 2200 nM in experiment [5]; 2800 nM in experiment [6]. Moreover, the IC50 in [2] was 2500 nM; in experiment [3], 2700 nM; in the experiment on leukemia cell line KG-1a it was < 100 nM.

Consider `CCOC(=O)c1cc(NC2(C(=O)Nc3nc4ccc5[nH]ncc5c4s3)CC2)ccc1Cl` [compound 118], for which the IC50 is 236 nM at Aurora A, 116 nM on CDK2/Cyclin E complex, 2000 nM in [1] and < 100 nM in the experiment on leukemia cell line KG-1a.

As for `CC(=O)Nc1cc(NC2(C(=O)Nc3nc4ccc5[nH]ncc5c4s3)CC2)ccc1F` [compound 120], the IC50 came to 164 nM on Aurora A; 64 nM at CDK2/Cyclin E complex; 800 nM in [1]; 3300 nM in [5]; 1900 nM in experiment [6]; 4800 nM in [3]. The IC50 with leukemia cell line KG-1a is < 100 nM.

In the case of `CNC(=O)c1cc(NC2(C(=O)Nc3nc4ccc5[nH]ncc5c4s3)CC2)ccc1Cl` [compound 126], the IC50 came out at 58 nM at Aurora A; 145 nM on CDK1/Cyclin B complex; 39 nM on CDK2/Cyclin E complex; 1500 nM in [1]; 3700 nM in experiment [5]; 4200 nM in experiment [6]. Besides, the IC50 with leukemia cell line KG-1a was < 100 nM.

As to `CCC(=O)Nc1cc(NC(C)(C)C(=O)Nc2nc3ccc4[nH]ncc4c3s2)ccc1Cl` [compound 129], the IC50 on Aurora A is 113 nM; on CDK2/Cyclin E complex, 86 nM; in [1], 800 nM; in experiment [5] it was 2600 nM; in [6], 2700 nM; in [3], 4800 nM. For the same compound, the IC50 in the experiment on leukemia cell line KG-1a was < 100 nM.

Turning to `CC(C)(Nc1ccc(Cl)c(C(=O)NCCCC(=O)O)c1)C(=O)Nc1nc2c(C(F)(F)F)cc3[nH]ncc3c2s1` [compound 144], the IC50 at Aurora A is 88 nM; at CDK1/Cyclin B complex it was 297 nM; on CDK2/Cyclin E complex, 249 nM; in [1], 3300 nM.
